ChEMBL document CHEMBL5506012, “Targeting Myeloid Leukemia-1 in Cancer Therapy: Advances and Directions” (J Med Chem, 2024)
One block for each compound: values may come before it.

How the values were obtained:
[1] = target: T1, Induced myeloid leukemia cell differentiation protein Mcl-1 (Homo sapiens, UniProt Q07820); experiment: Inhibition of human recombinant Mcl-1 by Surface Plasmon Resonance assay
[2] = target: T1, Induced myeloid leukemia cell differentiation protein Mcl-1; experiment: Binding affinity to N-terminal His-tagged human recombinant Mcl-1 (172 to 327 residues) expressed in Escherichia coli BL21 (DE3) assessed as inhibition constant
NCI-H929 [3] = experiment: Antiproliferative activity against human NCI-H929 cells assessed as reduction in cell viability; format: functional, cell-based
OCI-AML-5 = experiment: Antiproliferative activity against human OCI-AML5 cells assessed as reduction in cell viability incubated for 48 hrs by MTT assay; settings: OCI-AML-5, 48 h
[4] = target: T2, Apoptosis regulator Bcl-2 (Homo sapiens, UniProt P10415); experiment: Binding affinity to human Bcl-2 assessed as inhibition constant SPR assay
T2 sequence (P10415 whole entry): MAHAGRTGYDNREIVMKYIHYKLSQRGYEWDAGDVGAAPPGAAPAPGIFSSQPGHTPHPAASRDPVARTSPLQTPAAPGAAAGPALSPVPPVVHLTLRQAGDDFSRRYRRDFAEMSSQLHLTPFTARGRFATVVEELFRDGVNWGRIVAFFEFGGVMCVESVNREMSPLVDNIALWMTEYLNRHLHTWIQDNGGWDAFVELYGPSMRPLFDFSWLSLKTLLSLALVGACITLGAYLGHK

MV4-11 [5] = experiment: animal or person; settings: Mus musculus, MV4-11, po, 120 h, read-out: TGI
Description: Antitumor activity against human MV4-11 cells xenografted in C57BL/6 mouse assessed as tumor growth inhibition at 12.5 mg/kg, po administered once daily for 5 days relative to control

BC = experiment: Growth inhibition of human BC cells; format: functional
HL-60 = experiment: Growth inhibition of human HL-60 cells incubated for 48 hrs by cell-titer Glo reagent based assay; format: functional
HCC1187 = experiment: Growth inhibition of human HCC1187
MV4-11 [6] = experiment: cells; settings: Homo sapiens, MV4-11, 48 h
Description: Growth inhibition of human MV4-11 cells incubated for 48 hrs by cell-titer Glo reagent based assay

THP-1 = experiment: Growth inhibition of human THP-1 cells incubated for 48 hrs by cell-titer Glo reagent based assay; format: functional
MOLM-13 [7] = experiment: Growth inhibition of human MOLM-13 cells incubated for 48 hrs by cell-titer Glo reagent based assay; format: functional
MV4-11 [8] = experiment: Antitumor activity against human MV4-11 cells xenografted in SCID mouse assessed as inhibition of tumor growth at 100 mg/kg administered for 14 days consecutively relative to control; format: functional; settings: MV4-11, 336 h, time 14 day, read-out: TGI
[9] = target: T1, Induced myeloid leukemia cell differentiation protein Mcl-1; experiment: Binding affinity to Mcl-1 (unknown origin) assessed as inhibition constant by Fluorescence polarization assay
[10] = target: T1, Induced myeloid leukemia cell differentiation protein Mcl-1; experiment: Binding affinity to human Mcl-1 assessed as dissociation constant by Surface Plasmon Resonance assay
SK-MEL-2 = experiment: Antiproliferative activity against human SK-MEL-2 cells assessed as reduction in cell viability incubated for 48 hrs by MTT assay; format: functional, cell-based; settings: SK-MEL-2, 48 h
SK-BR-3 = experiment: Antiproliferative activity against human SK-BR-3 cells assessed as reduction in cell viability incubated for 48 hrs by MTT assay; format: functional, cell-based; settings: SK-BR-3, 48 h
AMO1 [11] = experiment: Antitumor activity against human AMO1 cells xenografted in mouse model assessed as tumor growth inhibition at 25 mg/kg administered for 5 days relative to control; format: functional; settings: AMO1, 120 h, time 5 day, read-out: TGI
NCI-H929 [12] = experiment: Antitumor activity against human NCI-H929 cells xenografted in mouse model assessed as tumor growth inhibition at 25 mg/kg administered for 5 days relative to control; format: functional; settings: NCI-H929, 120 h, time 5 day, read-out: TGI
MV4-11 [13] = experiment: Antiproliferative activity against human MV4-11 cells assessed as reduction in cell viability; format: functional, cell-based
NCI-H522 = experiment: Antiproliferative activity against human NCI-H522 cells assessed as reduction in cell viability incubated for 48 hrs by MTT assay; format: functional, cell-based; settings: NCI-H522, 48 h
AMO1 [14] = experiment: Antiproliferative activity against human AMO1 cells assessed as reduction in cell viability; format: functional, cell-based
AMO1 [15] = experiment: Antitumor activity against human AMO1 cells xenografted in mouse model assessed as tumor growth inhibition at 6.25 mg/kg administered for 5 days relative to control; format: functional; settings: AMO1, 120 h, time 5 day, read-out: TGI
MOLP-8 [16] = experiment: Induction of apoptosis in human MOLP8 cells; format: functional, cell-based
[17] = target: T1, Induced myeloid leukemia cell differentiation protein Mcl-1; experiment: Binding affinity to human Mcl-1 assessed as inhibition constant
MV4-11 [18] = experiment: Induction of apoptosis in human MV4-11 cells; format: functional, cell-based
EOL1 = experiment: Induction of apoptosis in human EOL1 cells; format: functional, cell-based
MOLM-13 [19] = experiment: Growth inhibition of human MOLM-13 cells by cell-titer Glo reagent based assay; format: functional
Bcl-2-like protein 1 [20] = target: T3, Bcl-2-like protein 1 (Homo sapiens, UniProt Q07817); experiment: Binding affinity to Bcl-XL (unknown origin) assessed as inhibition constant by fluorescence polarization assay
T3 sequence (Q07817 whole entry): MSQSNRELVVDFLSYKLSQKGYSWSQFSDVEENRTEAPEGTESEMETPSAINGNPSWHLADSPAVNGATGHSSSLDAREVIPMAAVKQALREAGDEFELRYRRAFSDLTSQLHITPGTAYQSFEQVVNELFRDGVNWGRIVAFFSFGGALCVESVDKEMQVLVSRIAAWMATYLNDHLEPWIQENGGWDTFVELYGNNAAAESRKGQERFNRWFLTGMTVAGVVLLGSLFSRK

MOLM-13 [21] = experiment: Induction of apoptosis in human MOLM-13 cells; format: functional, cell-based
SUD4 = experiment: Induction of apoptosis in human SU-DHL-4 cells; format: functional, cell-based
[22] = target: T2, Apoptosis regulator Bcl-2; experiment: Binding affinity to Bcl-2 (unknown origin) expressed in Escherichia coli BL21 (DE3) assessed as inhibition constant by fluorescence polarization assay
[23] = target: T1, Induced myeloid leukemia cell differentiation protein Mcl-1; experiment: Binding affinity to Mcl-1 (unknown origin) assessed as inhibition constant
[24] = target: T1, Induced myeloid leukemia cell differentiation protein Mcl-1; experiment: Inhibition of N-terminal GST-tagged human Mcl-1expressed in Escherichia coli by TR-FRET analysis
[25] = target: T1, Induced myeloid leukemia cell differentiation protein Mcl-1; experiment: Inhibition of Mcl-1 (unknown origin)
Bcl-2-like protein 1 [26] = target: T3, Bcl-2-like protein 1; experiment: Binding affinity to Bcl-xL (unknown origin) assessed as inhibition constant
Bcl-2-related protein A1 = Bcl-2-related protein A1 (Homo sapiens, UniProt Q16548); experiment: Binding affinity to Bfl-1 (unknown origin) assessed as inhibition constant
Chain of Bcl-2-related protein A1 (Q16548 whole entry): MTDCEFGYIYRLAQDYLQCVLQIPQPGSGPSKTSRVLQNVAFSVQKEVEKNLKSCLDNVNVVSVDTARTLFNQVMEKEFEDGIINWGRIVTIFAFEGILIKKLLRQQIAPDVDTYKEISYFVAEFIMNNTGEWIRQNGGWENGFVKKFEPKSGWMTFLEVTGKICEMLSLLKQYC

AMO1 [27] = experiment: Antitumor activity against human AMO1 cells xenografted in mouse model assessed as tumor growth inhibition at 12.5 mg/kg administered for 20 days relative to control; format: functional; settings: AMO1, 480 h, time 20 day, read-out: TGI
Bcl-2-like protein 2 = Bcl-2-like protein 2 (Homo sapiens, UniProt Q92843); experiment: Binding affinity to Bcl-W (unknown origin) assessed as inhibition constant
Chain of Bcl-2-like protein 2 (Q92843 whole entry): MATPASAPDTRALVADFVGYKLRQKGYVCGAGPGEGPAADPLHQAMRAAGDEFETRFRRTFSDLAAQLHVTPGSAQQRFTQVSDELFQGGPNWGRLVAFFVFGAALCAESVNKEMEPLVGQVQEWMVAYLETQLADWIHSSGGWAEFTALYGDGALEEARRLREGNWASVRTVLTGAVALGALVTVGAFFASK

[28] = target: T2, Apoptosis regulator Bcl-2; experiment: Binding affinity to Bcl-2 (unknown origin) assessed as inhibition constant
MV4-11 [29] = experiment: Antiproliferative activity against human MV4-11 cells assessed as reduction in cell viability incubated for 24 hrs by Celltiter-Glo reagent based assay; settings: MV4-11, 24 h
NCI-H23 = experiment: Antiproliferative activity against human NCI-H23 cells assessed as reduction in cell viability incubated for 24 hrs by Celltiter-Glo reagent based assay; format: functional; settings: NCI-H23, 24 h
MOLP-8 [30] = experiment: Antiproliferative activity against human MOLP8 cells assessed as reduction in cell viability incubated for 24 hrs by Celltiter-Glo reagent based assay; settings: MOLP-8, 24 h
[31] = Oral bioavailability in CD-1 mouse at 10 mg/kg, […]; format: ADME, organism-based; settings: in vivo

T1 sequence (Q07820 whole entry, the tested form may be a part): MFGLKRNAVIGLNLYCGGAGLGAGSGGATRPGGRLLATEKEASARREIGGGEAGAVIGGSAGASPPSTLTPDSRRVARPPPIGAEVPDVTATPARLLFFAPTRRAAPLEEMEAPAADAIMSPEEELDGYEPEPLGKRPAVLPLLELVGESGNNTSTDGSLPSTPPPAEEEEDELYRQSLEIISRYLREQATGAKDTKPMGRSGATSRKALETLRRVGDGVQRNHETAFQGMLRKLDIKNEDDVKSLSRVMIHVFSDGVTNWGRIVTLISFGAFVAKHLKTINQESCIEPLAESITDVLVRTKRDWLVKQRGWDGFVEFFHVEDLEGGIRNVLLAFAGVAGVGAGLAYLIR

SMILES: Cc1cc(OCCC(=O)O)cc(C)c1Cl
Ki [2]: 68000 nM

SMILES: Cc1c(-c2c(-c3ccc(F)o3)sc3ncnc(O[C@H](Cc4ccccc4OCc4ccnn4CC(F)(F)F)C(=O)O)c23)ccc(OCCN2CCN(C)CC2)c1Cl
EC50 (NCI-H929 [3]): < 10 nM
IC50 (OCI-AML-5): 4 nM
Ki [4]: > 10000 nM
inhibition in vivo at 12.5 mg/kg (MV4-11 [5]): 86%

SMILES: Cc1cc(OCCCc2c3n(c4c(-c5c(C)nn(C)c5C)c(Cl)ccc24)[C@H](C)CN(c2cn(C)c4ccc(C(=O)O)cc24)C3=O)cc(C)c1Cl
GI50 (BC): 1300 nM
GI50 (HL-60): 3710 nM
GI50 (HCC1187): 2100 nM
GI50 (MV4-11 [6]): 180 nM
GI50 (THP-1): 490 nM
GI50 (MOLM-13 [7]): 210 nM
inhibition in vivo at 100 mg/kg (MV4-11 [8]): 60%

SMILES: CCc1sc2ncnc(N[C@@H](C)C(=O)O)c2c1CC
Ki [9]: 1.2 nM
Kd [10]: 0.19 nM

SMILES: COc1ccccc1-c1nccc(COc2ccccc2C[C@H](Oc2ncnc3sc(-c4ccc(F)cc4)c(-c4ccc(OCCN5CCN(C)CC5)c(Cl)c4C)c23)C(=O)O)n1
IC50 (SK-MEL-2): < 100 nM
IC50 (SK-BR-3): < 100 nM
inhibition in vivo at 25 mg/kg (AMO1 [11]): 114%
inhibition in vivo at 25 mg/kg (NCI-H929 [12]): 103%
EC50 (MV4-11 [13]): 10.9 nM
EC50 (NCI-H929 [3]): 4.75 nM
IC50 (NCI-H522): < 100 nM
EC50 (AMO1 [14]): 2.06 nM
inhibition in vivo at 6.25 mg/kg (AMO1 [15]): 190%

SMILES: COCCOCCn1nc(C)c2c1CSCc1cc(n(C)n1)CCc1cc(c3ccccc3c1)OCCCn1c(C(=O)O)c(C)c3c-2c(Cl)ccc31
AC50 (MOLP-8 [16]): 8.7 nM
Ki [17]: 0.006 nM
AC50 (MV4-11 [18]): 14 nM
AC50 (EOL1): 2.1 nM
GI50 (MOLM-13 [19]): 10 nM
Ki (Bcl-2-like protein 1 [20]): 5000 nM
AC50 (MOLM-13 [21]): 10 nM
AC50 (SUD4): 21 nM
Ki [22]: 3750 nM

SMILES: Cc1cc(SCc2nn(C)c(C)c2-c2cccc3c(CCCOc4cccc5ccccc45)c(C(=O)O)[nH]c23)nn1C
IC50 [24]: 42 nM

SMILES: Cc1c(Cl)c2c(Cl)c(C)c1-c1c(-c3ccc(F)cc3)sc3ncnc(c13)O[C@@H](C(=O)O)Cc1cc(ccc1OCc1ccnc(-c3ccc(OC[C@@H]4COCCO4)cc3)n1)OC[C@@H](CN1CCN(C)CC1)O2
Ki (Bcl-2-like protein 1 [26]): > 660 nM
Ki (Bcl-2-related protein A1): > 468 nM
inhibition in vivo at 12.5 mg/kg (AMO1 [27]): 46%
EC50 (MV4-11 [13]): 3.91 nM
EC50 (NCI-H929 [3]): 0.47 nM
Ki [23]: < 0.01 nM
EC50 (AMO1 [14]): 0.16 nM
Ki (Bcl-2-like protein 2): > 468 nM
Ki [28]: 599 nM

More lines, main results first:

IC50 [1]: 310 nM
SMILES: O=C(O)CSc1cc(NS(=O)(=O)c2ccc(Br)cc2)c2ccccc2c1O

Ki [23]: 0.05 nM
SMILES: CCC1CC/C=C/C(O)C2CCC2CN2CC3(CCc4cc(Cl)ccc43)COc3ccc(cc32)C(=O)NS1(=O)=O (stereo unspecified)

IC50 [25]: 300 nM
SMILES: O=C(NS(=O)(=O)Cc1ccccc1)c1ccc2c(c1)N(CC1CCC1)CC(c1ccc(Cl)cc1Cl)O2 (stereo unspecified)

IC50 [24]: 19 nM
SMILES: Cc1c2c(nn1C)CSCc1cc(n(C)n1)CCc1cc(c3ccccc3c1)OCCCc1c(C(=O)O)[nH]c3c-2cccc13

EC50 (MV4-11 [29]): 24 nM
EC50 (NCI-H23): 190 nM
EC50 (MV4-11 [13]): 34.9 nM
EC50 (NCI-H929 [3]): 31.7 nM
SMILES: Cc1c2c(nn1C)CSCc1cc(n(C)n1)CSc1cc(c3ccccc3c1)OCCCc1c(C(=O)O)n(C)c3c-2c(Cl)ccc13 [AZD-5991]
EC50 (MOLP-8 [30]): 33 nM
EC50 (AMO1 [14]): 22.9 nM

EC50 (MV4-11 [13]): 43.6 nM
EC50 (NCI-H929 [3]): 13 nM
SMILES: CO[C@]1(CN2CCN3CCCC[C@@H]3C2)/C=C/C[C@H](C)[C@@H](C)S(=O)(=O)NC(=O)c2ccc3c(c2)N(C[C@@H]2CC[C@H]21)C[C@@]1(CCCc2cc(Cl)ccc21)CO3 [MURIZATOCLAX]
EC50 (AMO1 [14]): 13.5 nM

bioavailability [31]: 57%
SMILES: CC1(C)CCC(c2ccc(Cl)cc2)=C(CN2CCN(c3ccc(C(=O)NS(=O)(=O)c4ccc(N[C@H](CCN5CCOCC5)CSc5ccccc5)c(S(=O)(=O)C(F)(F)F)c4)cc3)CC2)C1 [NAVITOCLAX]
